Values after ≈ are worked out from the molar mass of the structure shown.
Experiments:
[1] = system: HT-29; assay: In vitro cytotoxicity against human colon adenocarcinoma cell line HT-29 at 1.6*10e-5M; assay type: functional; conditions: read-out: ED50 (the source's name)
[2] = system: A549; assay: In vitro cytotoxicity against human lung carcinoma cell line A-549 at 7.4*10e-5 M; assay type: functional; conditions: read-out: ED50 (the source's name)
[3] = system: SK-MEL-5; assay: In vitro cytotoxicity against human melanoma, metastatic to auxiliary node (SK-MEL-5); assay type: functional; conditions: read-out: ED50 (the source's name)
[4] = system: Malme-3M; assay: In vitro cytotoxicity against human melanoma, metastatic to lung using MTT assay (MALME-3M); assay type: functional; conditions: read-out: ED50 (the source's name)
[5] = system: MCF7; assay: In vitro cytotoxicity against human breast carcinoma cell line MCF-7 at 8.1*10e-5M; assay type: functional; conditions: read-out: ED50 (the source's name)
[6] = system: MCF7; assay: In vitro cytotoxicity against human breast carcinoma cell line MCF-7 at 4.9*10e-5M; assay type: functional; conditions: read-out: ED50 (the source's name)
[7] = system: NRK; assay: In vitro cytotoxicity expressed as % cell kill against rat transformed cell line H/1/2-NRK at a dose of 33 uM; assay type: functional
[8] = system: SK-MEL-5; assay: In vitro cytotoxicity against human melanoma, metastatic to auxiliary node (SK-MEL-5) at 6.3*10e-5M; assay type: functional; conditions: read-out: ED50 (the source's name)
[9] = system: NRKE; assay: In vitro cytotoxicity expressed as % cell kill against normal rat kidney epithelial cell (NRKE) at a dose of 33 uM; assay type: functional
[10] = system: NRK; assay: In vitro cytotoxicity expressed as % cell kill against rat transformed cell line H/1/2-NRK at a dose of 3.3 uM; assay type: functional
[11] = system: Malme-3M; assay: In vitro cytotoxicity against human melanoma, metastatic to lung using MTT assay (MALME-3M) at 6.8*10e-5M; assay type: functional
[12] = system: A549; assay: In vitro cytotoxicity against human lung carcinoma cell line A-549 at 6.1*10e-5 M; assay type: functional; conditions: read-out: ED50 (the source's name)
[13] = system: HT-29; assay: In vitro cytotoxicity against human colon adenocarcinoma cell line HT-29 at 1.2*10e-5M; assay type: functional; conditions: read-out: ED50 (the source's name)
[14] = species: Mus musculus; assay: Maximum tolerated dose (MTD) was reported; assay type: functional
[15] = system: NRK; assay: In vitro cytotoxicity expressed as % cell kill against ras transformed cell line K/1-NRK at a dose of 33 uM; assay type: functional, Rattus norvegicus
[16] = system: NRK; assay: In vitro cytotoxicity expressed as % cell kill against rat transformed cell line K/1-NRK at a dose of 3.3 uM; assay type: functional
[17] = system: NRKE; assay: In vitro cytotoxicity expressed as % cell kill against normal rat kidney epithelial cell (NRKE) at a dose of 3.3 uM; assay type: functional
[18] = system: Mus musculus; assay: Percent inhibition was determined against K/1-NRK tumor at a dose of 150 mg/kg/day in mice; assay type: functional
[19] = system: Mus musculus; assay: Percent inhibition was determined against H/1/2-NRK tumor at a dose of 150 mg/kg/day in mice; assay type: functional
[20] = system: Mus musculus; assay: Percent inhibition was determined against K/1-NRK tumor at a dose of 75 mg/kg/day in mice; assay type: functional
[21] = system: SK-MEL-5; assay: In vitro cytotoxicity against human melanoma, metastatic to auxiliary node (SK-MEL-5) at 3.2*10e-5M; assay type: functional; conditions: read-out: ED50 (the source's name)
[22] = system: A549; assay: In vitro cytotoxicity against human lung carcinoma cell line A-549; assay type: functional; conditions: read-out: ED50 (the source's name)
[23] = system: HT-29; assay: In vitro cytotoxicity against human colon adenocarcinoma cell line HT-29 at 3.0*10e-5 M; assay type: functional; conditions: read-out: ED50 (the source's name)
[24] = system: MCF7; assay: In vitro cytotoxicity against human breast carcinoma cell line MCF-7; assay type: functional; conditions: read-out: ED50 (the source's name)
[25] = system: Malme-3M; assay: In vitro cytotoxicity against human melanoma, metastatic to lung using MTT assay (MALME-3M) at 5.5*10e-5M; assay type: functional; conditions: read-out: ED50 (the source's name)
[26] = system: HT-29; assay: In vitro cytotoxicity against human colon adenocarcinoma cell line HT-29; assay type: functional; conditions: read-out: ED50 (the source's name)
[27] = system: MCF7; assay: In vitro cytotoxicity against human breast carcinoma cell line MCF-7 at 5.6*10e-5M; assay type: functional; conditions: read-out: ED50 (the source's name)
[28] = system: HT-29; assay: In vitro cytotoxicity against human colon adenocarcinoma cell line HT-29 at 5.9*10e-5M; assay type: functional; conditions: read-out: ED50 (the source's name)
[29] = system: Malme-3M; assay: In vitro cytotoxicity against human melanoma, metastatic to lung using MTT assay (MALME-3M) at 4.7*10e-5M; assay type: functional; conditions: read-out: ED50 (the source's name)
[30] = system: A549; assay: In vitro cytotoxicity against human lung carcinoma cell line A-549 at 5.0*10e-5M; assay type: functional; conditions: read-out: ED50 (the source's name)
[31] = system: SK-MEL-5; assay: In vitro cytotoxicity against human melanoma, metastatic to auxiliary node (SK-MEL-5) at 2.6*10e-5M; assay type: functional; conditions: read-out: ED50 (the source's name)
[32] = system: A549; assay: In vitro cytotoxicity against human lung carcinoma cell line A-549 at 3.6*10e-5 M; assay type: functional; conditions: A549, read-out: ED50
[33] = system: HT-29; assay: In vitro cytotoxicity against human colon adenocarcinoma cell line HT-29 at 5.7*10e-5M; assay type: functional; conditions: HT-29, read-out: ED50
[34] = system: SK-MEL-5; assay: In vitro cytotoxicity against human melanoma, metastatic to auxiliary node (SK-MEL-5) at 5.1*10e-5M; assay type: functional; conditions: SK-MEL-5, read-out: ED50
[35] = system: MCF7; assay: In vitro cytotoxicity against human breast carcinoma cell line MCF-7 at 4.4*10e-5M; assay type: functional; conditions: MCF7, read-out: ED50
[36] = system: P388; assay: In vitro cytotoxicity against P388 cell line; 10e-7-10e-9 ug/mL; assay type: functional; conditions: Mus musculus, read-out: ED50 (the source's name)

## C[C@@]12CCC3[C@](C)(CC[C@]4(C)C(=O)CC[C@@]34C)[C@@]1(C)Cc1nc3c(nc1C2)C[C@@]1(C)[C@@](C)(CCC2[C@]1(C)CC[C@]1(C)C(=O)CC[C@@]21C)C3 (stereo partly specified)
[1]
  EC50: 94 µg/mL (≈ 144 µM)
[2]
  EC50: 42 µg/mL (≈ 64.3 µM)
[3]
  EC50: > 100 µg/mL
[4]
  EC50: > 100 µg/mL
[5]
  EC50: 46 µg/mL (≈ 70.4 µM)

## C[C@@]12CCC3[C@](C)(CC[C@]4(C)[C@@H](O)CC[C@@]34C)[C@@]1(C)Cc1nc3c(nc1C2)C[C@@]1(C)[C@@](C)(CCC2[C@]1(C)CC[C@]1(C)[C@@H](O)CC[C@@]21C)C3 (stereo partly specified)
[6]
  EC50: 28 µg/mL (≈ 42.6 µM)
[7]
  Cell kill: 100%
[8]
  EC50: 36 µg/mL (≈ 54.8 µM)
[9]
  Cell kill: 100%
[10]
  Cell kill: 100%
[11]; read-out: ED50 (the source's name)
  EC50: 39 µg/mL (≈ 59.4 µM)
[12]
  EC50: 35 µg/mL (≈ 53.3 µM)
[13]
  EC50: 7 µg/mL (≈ 10.7 µM)
[14]
  MTD: 150 mg/kg/day
[15]
  Cell kill: 100%
[16]
  Cell kill: 100%
[17]
  Cell kill: 100%
[18]
  inhibition in vivo at 150 mg/kg/day: 51%
[19]
  inhibition in vivo at 150 mg/kg/day: 59%
[20]
  inhibition in vivo at 75 mg/kg/day: 28%

## C[C@H]1CC[C@@]2(OC1)O[C@H]1C[C@@]3(C)C4CC[C@@]5(C)Cc6nc7c(nc6C[C@]5(C)C4=C(O)C(=O)[C@]3(C)[C@H]1[C@@H]2C)C[C@]1(C)CCC2C(=C(O)C(=O)[C@]3(C)[C@@H]4[C@H](C[C@@]23C)O[C@]2(CC[C@H](C)CO2)[C@H]4C)[C@@]1(C)C7 (stereo partly specified)
[21]
  EC50: 28 µg/mL (≈ 30 µM)
[22]
  EC50: > 100 µg/mL
[23]
  EC50: 26 µg/mL (≈ 27.9 µM)
[24]
  EC50: > 100 µg/mL
[25]
  EC50: 53 µg/mL (≈ 56.8 µM)

## CCCCCCCC[C@H]1CC[C@@]2(C)C3CC[C@@]4(C)Cc5nc6c(nc5C[C@]4(C)[C@@]3(C)CC[C@]12C)C[C@]1(C)CCC2[C@](C)(CC[C@]3(C)[C@@H](CCCCCCCC)CC[C@@]23C)[C@@]1(C)C6 (stereo partly specified)
[26]
  EC50: > 100 µg/mL
[3]
  EC50: > 100 µg/mL
[22]
  EC50: > 100 µg/mL
[24]
  EC50: > 100 µg/mL
[4]
  EC50: > 100 µg/mL

## C[C@@]12CCC3[C@](C)(CC[C@]4(C)C5(CC[C@@]34C)OCCO5)[C@@]1(C)Cc1nc3c(nc1C2)C[C@@]1(C)[C@@](C)(CCC2[C@]1(C)CC[C@]1(C)C4(CC[C@@]21C)OCCO4)C3 (stereo partly specified)
[27]
  EC50: 37 µg/mL (≈ 49.9 µM)
[28]
  EC50: 39 µg/mL (≈ 52.6 µM)
[29]
  EC50: 31 µg/mL (≈ 41.8 µM)
[30]
  EC50: 33 µg/mL (≈ 44.5 µM)
[31]
  EC50: 17 µg/mL (≈ 22.9 µM)

## C[C@@]12CCC3[C@](C)(CC[C@]4(C)[C@@H](O)CC[C@@]34C)[C@@]1(C)Cc1nc3c(nc1C2)C(N=[N+]=[N-])[C@@]1(C)[C@@H](CCC2[C@]1(C)CC[C@]1(C)[C@@H](O)CC[C@@]21C)C3 (stereo partly specified)
[32]
  EC50: 22 µg/mL (≈ 32.2 µM)
[11]; read-out: ED50
  EC50: 42 µg/mL (≈ 61.4 µM)
[33]
  EC50: 35 µg/mL (≈ 51.2 µM)
[34]
  EC50: 31 µg/mL (≈ 45.3 µM)
[35]
  EC50: 27 µg/mL (≈ 39.5 µM)

## C[C@@H]1[C@]2(O[C@H]3C=C4C5CC[C@@]6(C)Cc7nc8c(nc7C[C@]6(C)[C@@]5(C)C[C@@H](O)[C@]4(C)[C@]31O)C[C@]1(C)CCC3C4=CC[C@@H]5[C@H](C)[C@@]6(OC[C@]45C(=O)C[C@@H]3[C@@]1(C)C8)OC(C)(C)C[C@H]6O)O[C@](C)(CO)C[C@H]2O (stereo partly specified) [CEPHALOSATIN]
[36]
  EC50: 0.001 ng/mL (≈ 1.05e-06 µM)

Source: ChEMBL document CHEMBL1126465, “Synthesis and pharmacological evaluation of nonacyclic and trisdecacyclic pyrazines related to cephalostatin” (1992)
